Assay results: patent US9494573B2, “In vitro tumor in dish kit and method” (University of Kansas, priority 2012, dated 2016)

Key:
[1] = test system: human ovarian cancer epithelial cells from ascites fluid; test: Tumor in Dish model using primary tumor cells: cancer cells; type: cell-based; settings: TiD with primary patient cells, FIG. 5
Text: Human ovarian cancer epithelial cells were isolated from the ascites fluid of a patient and combined with normal cells as described in Example 1 to form TiD.

[2] = test system: normal cells in the PLiD

## N.N.[Cl][Pt][Cl] [cisplatin]
[1]
  killing of ovarian cancer cells from the ascites fluid: killed most of the ovarian cancer cells
[2]
  effect on the surrounding normal cells: affected the normal cells
